Results taken from PubChem BioAssay AID2060909 (Molecular Pharmacology Branch, DTP, NCI, 2025).

System: 362531-283-R-J2-PDC complex spheroid viability
Test: Anticancer human tumor 362531-283-R-J2-PDC patient-derived colon adenocarcinoma cell line growth inhibition [RAS]
Conditions: for IC50: curve of first compound; for viability, T/C: stronger effect = lower value
Outline: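 Tumour cells grown as complex spheroids with HUVEC endothelial cells and mesenchymal stem cells, treated with RAS pathway inhibitor combinations. Each agent spans half-log steps from near clinical Cmax, or 10 microM where Cmax is unknown.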

[1] = second compound 0.000949 µM, first compound 0.00316 µM
[2] = second compound 0.000949 µM, first compound 0.01 µM
[3] = second compound 0.000949 µM, first compound 0.0316 µM
[4] = second compound 0.000949 µM, first compound 0.1 µM
[5] = second compound 0.003 µM, first compound 0.00316 µM
[6] = second compound 0.003 µM, first compound 0.01 µM
[7] = second compound 0.003 µM, first compound 0.0316 µM
[8] = second compound 0.003 µM, first compound 0.1 µM
[9] = second compound 0.00949 µM, first compound 0.00316 µM
[10] = second compound 0.00949 µM, first compound 0.01 µM
[11] = second compound 0.00949 µM, first compound 0.0316 µM
[12] = second compound 0.00949 µM, first compound 0.1 µM
[13] = second compound 0.03 µM, first compound 0.00316 µM
[14] = second compound 0.03 µM, first compound 0.01 µM
[15] = second compound 0.03 µM, first compound 0.0316 µM
[16] = second compound 0.03 µM, first compound 0.1 µM
[17] = second compound 0.0949 µM, first compound 0.00316 µM
[18] = second compound 0.0949 µM, first compound 0.01 µM
[19] = second compound 0.0949 µM, first compound 0.0316 µM
[20] = second compound 0.0949 µM, first compound 0.1 µM
[21] = second compound 0.3 µM, first compound 0.00316 µM
[22] = second compound 0.3 µM, first compound 0.01 µM
[23] = second compound 0.3 µM, first compound 0.0316 µM
[24] = second compound 0.3 µM, first compound 0.1 µM
[25] = second compound 0.000949 µM, first compound 0.316 µM
[26] = second compound 0.000949 µM, first compound 1 µM
[27] = second compound 0.003 µM, first compound 0.316 µM
[28] = second compound 0.003 µM, first compound 1 µM
[29] = second compound 0.00949 µM, first compound 0.316 µM
[30] = second compound 0.00949 µM, first compound 1 µM
[31] = second compound 0.03 µM, first compound 0.316 µM
[32] = second compound 0.03 µM, first compound 1 µM
[33] = second compound 0.0949 µM, first compound 0.316 µM
[34] = second compound 0.0949 µM, first compound 1 µM
[35] = second compound 0.3 µM, first compound 0.316 µM
[36] = second compound 0.3 µM, first compound 1 µM
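Note: spheroids exposed to the agents for 7 days before readout.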
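Throughout, for viability, T/C: luminescence viability as percent of DMSO vehicle control wells.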

## CC(C)n1nc(-c2ccc3oc(N)nc3c2)c2c(N)ncnc21 + CCn1c(-c2cc(N3CCN(C)CC3)cnc2C(C)OC)c2c3cc(ccc31)-c1csc(n1)CC(NC(=O)C1CC1C)C(=O)N1CCCC(N1)C(=O)OCC(C)(C)C2
Second compound 0.000949 µM
  IC50: 62.7 nM
Second compound 0.003 µM
  IC50: 67.9 nM
Second compound 0.00949 µM
  IC50: 48.1 nM
Second compound 0.03 µM
  IC50: 41.3 nM
Second compound 0.0949 µM
  IC50: 18.8 nM
Second compound 0.3 µM
  IC50: < 0.316 nM
Second compound 0.000949 µM, first compound 0.000316 µM
  viability, T/C: 88.2%
Second compound 0.000949 µM, first compound 0.001 µM
  viability, T/C: 97.4%
[1]
  viability, T/C: 98.9%
[2]
  viability, T/C: 106%
[3]
  viability, T/C: 62.9%
[4]
  viability, T/C: 41.2%
Second compound 0.003 µM, first compound 0.000316 µM
  viability, T/C: 99.4%
Second compound 0.003 µM, first compound 0.001 µM
  viability, T/C: 102%
[5]
  viability, T/C: 102%
[6]
  viability, T/C: 100%
[7]
  viability, T/C: 69.7%
[8]
  viability, T/C: 40%
Second compound 0.00949 µM, first compound 0.000316 µM
  viability, T/C: 102%
Second compound 0.00949 µM, first compound 0.001 µM
  viability, T/C: 111%
[9]
  viability, T/C: 93.6%
[10]
  viability, T/C: 94.7%
[11]
  viability, T/C: 57.6%
[12]
  viability, T/C: 35.9%
Second compound 0.03 µM, first compound 0.000316 µM
  viability, T/C: 89.5%
Second compound 0.03 µM, first compound 0.001 µM
  viability, T/C: 86.5%
[13]
  viability, T/C: 89.6%
[14]
  viability, T/C: 92%
[15]
  viability, T/C: 54%
[16]
  viability, T/C: 36.8%
Second compound 0.0949 µM, first compound 0.000316 µM
  viability, T/C: 82.2%
Second compound 0.0949 µM, first compound 0.001 µM
  viability, T/C: 84.1%
[17]
  viability, T/C: 77.1%
[18]
  viability, T/C: 63.1%
[19]
  viability, T/C: 39%
[20]
  viability, T/C: 35%
Second compound 0.3 µM, first compound 0.000316 µM
  viability, T/C: 41.6%
Second compound 0.3 µM, first compound 0.001 µM
  viability, T/C: 45.7%
[21]
  viability, T/C: 37%
[22]
  viability, T/C: 21.1%
[23]
  viability, T/C: 21.8%
[24]
  viability, T/C: 17.1%

## CCN1CCN(Cc2ccc(Nc3ncc(F)c(-c4cc(F)c5nc(C)n(C(C)C)c5c4)n3)nc2)CC1 + CCn1c(-c2cc(N3CCN(C)CC3)cnc2C(C)OC)c2c3cc(ccc31)-c1csc(n1)CC(NC(=O)C1CC1C)C(=O)N1CCCC(N1)C(=O)OCC(C)(C)C2
Second compound 0.000949 µM
  IC50: 830 nM
Second compound 0.003 µM
  IC50: 714 nM
Second compound 0.00949 µM
  IC50: 471 nM
Second compound 0.03 µM
  IC50: 308 nM
Second compound 0.0949 µM
  IC50: 112 nM
Second compound 0.3 µM
  IC50: < 3.16 nM
[1]
  viability, T/C: 95.6%
[2]
  viability, T/C: 114%
[3]
  viability, T/C: 99.2%
[4]
  viability, T/C: 90.4%
[25]
  viability, T/C: 69.9%
[26]
  viability, T/C: 46.1%
[5]
  viability, T/C: 106%
[6]
  viability, T/C: 110%
[7]
  viability, T/C: 96.4%
[8]
  viability, T/C: 87.8%
[27]
  viability, T/C: 66.6%
[28]
  viability, T/C: 43.1%
[9]
  viability, T/C: 102%
[10]
  viability, T/C: 112%
[11]
  viability, T/C: 105%
[12]
  viability, T/C: 100%
[29]
  viability, T/C: 61.4%
[30]
  viability, T/C: 28.4%
[13]
  viability, T/C: 102%
[14]
  viability, T/C: 96.8%
[15]
  viability, T/C: 93.2%
[16]
  viability, T/C: 73.5%
[31]
  viability, T/C: 50.1%
[32]
  viability, T/C: 15.2%
[17]
  viability, T/C: 86.9%
[18]
  viability, T/C: 81%
[19]
  viability, T/C: 81.7%
[20]
  viability, T/C: 54.2%
[33]
  viability, T/C: 10.9%
[34]
  viability, T/C: 13.2%
[21]
  viability, T/C: 48.4%
[22]
  viability, T/C: 46.8%
[23]
  viability, T/C: 40%
[24]
  viability, T/C: 13.3%
[35]
  viability, T/C: 6.94%
[36]
  viability, T/C: 11.1%

## C[C@@H](NC(=O)c1ncnc(N)c1Cl)c1ncc(C(=O)Nc2cc(C(F)(F)F)c(Cl)cn2)s1 + CCn1c(-c2cc(N3CCN(C)CC3)cnc2C(C)OC)c2c3cc(ccc31)-c1csc(n1)CC(NC(=O)C1CC1C)C(=O)N1CCCC(N1)C(=O)OCC(C)(C)C2
Second compound 0.000949 µM
  IC50: > 10000 nM
Second compound 0.003 µM
  IC50: > 10000 nM
Second compound 0.00949 µM
  IC50: > 10000 nM
Second compound 0.03 µM
  IC50: > 10000 nM
Second compound 0.0949 µM
  IC50: > 10000 nM
Second compound 0.3 µM
  IC50: 3740 nM
[3]
  viability, T/C: 107%
[4]
  viability, T/C: 110%
[25]
  viability, T/C: 94.3%
[26]
  viability, T/C: 103%
Second compound 0.000949 µM, first compound 3.16 µM
  viability, T/C: 96.1%
Second compound 0.000949 µM, first compound 10 µM
  viability, T/C: 78.5%
[7]
  viability, T/C: 106%
[8]
  viability, T/C: 104%
[27]
  viability, T/C: 93.3%
[28]
  viability, T/C: 94.3%
Second compound 0.003 µM, first compound 3.16 µM
  viability, T/C: 85.6%
Second compound 0.003 µM, first compound 10 µM
  viability, T/C: 69.6%
[11]
  viability, T/C: 94%
[12]
  viability, T/C: 100%
[29]
  viability, T/C: 95.9%
[30]
  viability, T/C: 96.9%
Second compound 0.00949 µM, first compound 3.16 µM
  viability, T/C: 86.3%
Second compound 0.00949 µM, first compound 10 µM
  viability, T/C: 66%
[15]
  viability, T/C: 107%
[16]
  viability, T/C: 92.6%
[31]
  viability, T/C: 91.7%
[32]
  viability, T/C: 92%
Second compound 0.03 µM, first compound 3.16 µM
  viability, T/C: 78%
Second compound 0.03 µM, first compound 10 µM
  viability, T/C: 62.1%
[19]
  viability, T/C: 79.3%
[20]
  viability, T/C: 87%
[33]
  viability, T/C: 78.7%
[34]
  viability, T/C: 73.7%
Second compound 0.0949 µM, first compound 3.16 µM
  viability, T/C: 76.2%
Second compound 0.0949 µM, first compound 10 µM
  viability, T/C: 62.5%
[23]
  viability, T/C: 56.6%
[24]
  viability, T/C: 56.2%
[35]
  viability, T/C: 58.5%
[36]
  viability, T/C: 59.9%
Second compound 0.3 µM, first compound 3.16 µM
  viability, T/C: 72%
Second compound 0.3 µM, first compound 10 µM
  viability, T/C: 26.3%
